PMC7297445, “Pharmacokinetic/Pharmacodynamic Determination and Preclinical Pharmacokinetics of the β-Lactamase Inhibitor ETX1317 and Its Orally Available Prodrug ETX0282” (ACS Infectious Diseases, 2020)

Key:
Assay type in all cases: cell-based
Conditions in all cases: with CPD
[1] = test system: K. pneumoniae ARC5118; experiment: Chemostat in vitro infection model, dose fractionation
Protocol: (§1) The PK/PD driver of ETX1317 was assessed in the presence of CPD in both hollow-fiber[28]−[31] and chemostat[32]in vitro infection model systems. In all cases, CPD was administered q12h via a 2 h infusion and eliminated with a 2 h half-life, with the concentration of drug exceeding the MIC (the MIC of CPD in the presence of ETX1317 at a 1:2 ratio) for 50% of the dosing interval for each strain. Representative Emax plots are shown graphically for Escherichia coli ARC2687 in the hollow-fiber model and Klebsiella pneumoniae ARC4420 in the chemostat system (Figure 2). […] This could partially be attributed to the distribution of the concentration ranges utilized for the hollow-fiber infection model (HFIM) where most of the data scatter occurred in the efficacious dose range for lower MIC strains. It is important to note that initial evaluation of K. pneumoniae ARC4420 and ARC5118 was completed in the HFIM but rapid degradation of CPD, presumably through accumulation of β-lactamases in the extra-capillary space of the cartridge precluded a reliable assessment of the PK/PD driver with these strains in this model.[32] […] In both the HFIM and chemostat models the optimum critical threshold of ETX1317 was established through iterative Emax fitting of a range of ETX1317 concentrations from 0.5× to 2× the CPD:ETX1317 MIC value. In the HFIM, %Time > ETX1317 CT of 2× MIC provided the highest correlation to observed activity which appeared to be independent to the apparent intrinsic activity of ETX1317 (as reflected by ETX1317 MICBLI of K. pneumoniae ARC4486 vs ARC4488). […] In both models CPD infused alone mimicked vehicle control as expected with similar growth of +2 to 4 log10 CFU/mL.
(§2) Enterobacteriaceae isolates E. coli ARC2687 and K. pneumoniae isolates ARC4486, ARC4488, ARC5118, and ARC4420 were prepared for infection from an overnight plate culture. On the day of the experiment, a few colonies of bacteria were inoculated in Mueller Hinton Broth II (MHBII, Sigma-Aldrich, St. Louis, MO) and incubated at 35 °C until reaching log-phase growth, about 1 h. In hollow-fiber studies cell population density is confirmed by turbidimetric assay (OD600) and final dilution is adjusted to deliver approximately 15 mL of bacteria (1 × 10^6 CFU/mL) to the extra-capillary space of the hollow-fiber cartridge (Fibercell Systems, Inc., Frederick, MD). After 1 h, targeted drug concentrations were introduced using a 2 h infusion via a syringe pump (Harvard Apparatus, Holliston, MA). […]
(§3) Dose range and dose fractionation were performed in hollow-fiber infection model (HFIM) and chemostat (one-compartment) in vitro infection model. […] CPD concentrations were targeted to achieve exposure of ∼50%Time > MIC determined in the presence of ETX1317. […]

[2] = test system: K. pneumoniae ARC4420; experiment: as above
Protocol: as §1, §2, §3

[3] = test system: K. pneumoniae ARC4488; experiment: Hollow-fiber infection model (HFIM), dose fractionation
Protocol: as §1
(§4) Enterobacteriaceae isolates E. coli ARC2687 and K. pneumoniae isolates ARC4486, ARC4488, ARC5118, and ARC4420 were prepared for infection from an overnight plate culture. On the day of the experiment, a few colonies of bacteria were inoculated in Mueller Hinton Broth II (MHBII, Sigma-Aldrich, St. Louis, MO) and incubated at 35 °C until reaching log-phase growth, about 1 h. In hollow-fiber studies cell population density is confirmed by turbidimetric assay (OD600) and final dilution is adjusted to deliver approximately 15 mL of bacteria (1 × 10^6 CFU/mL) to the extra-capillary space of the hollow-fiber cartridge (Fibercell Systems, Inc., Frederick, MD). After 1 h, targeted drug concentrations were introduced using a 2 h infusion via a syringe pump (Harvard Apparatus, Holliston, MA). For chemostat experiments approximately 1 mL of bacteria (1 × 10^8 CFU/mL) were introduced to the chemostat reservoir bottle with 100 mL MHBII to dilute bacterial culture and reach a target CFU density of 1 × 10^6 CFU/mL. After 5 min, each chemostat bottle was exposed to targeted drug with a 2 h infusion administered via syringe pump.
(§5) ETX1317 and CPD were dissolved in MHBII (accounting for potency) and delivered as a 2 h infusion via syringe pump (Harvard Apparatus, Holliston, MA). Solubility and stability were confirmed at room temperature for the experiment. Dose formulation potency was verified by LC/MS/MS.
(§6) Dose range and dose fractionation were performed in hollow-fiber infection model (HFIM) and chemostat (one-compartment) in vitro infection model. Bacteria treated with media only (growth control) and dose arms spanning a 64-fold exposure range of drug delivered within regimens of q6h, q12h, and q24h were used. E. coli ARC2687 and K. pneumoniae ARC4486 and ARC4488 were completed in the HFIM. K. pneumoniae ARC5118 and ARC4420 were studied in the chemostat system. CPD concentrations were targeted to achieve exposure of ∼50%Time > MIC determined in the presence of ETX1317. Both CPD and ETX1317 were administered via a 2 h infusion from syringe pumps (Harvard Apparatus) to mimic the approximate Cmax following oral absorption observed clinically for CDP. […]

[4] = test system: K. pneumoniae ARC4486; experiment: as above
Protocol: as §1, §4, §5, §6

[5] = test system: E. coli ARC2687; experiment: as above
Protocol: as §1, §4, §5, §6

In the case of `CC1=C[C@@H](C(N)=O)N2C[C@@H]1N(O[C@H](F)C(=O)O)C2=O` [ETX1317], the “%Time > CT of 1 μg/mL for 1–log10 kill” value [1] is reported as 65%, the “%Time > CT of 1 μg/mL for stasis” value [1] is reported as 60% and the “%Time > CT of 1 μg/mL for 1–log10 kill” value [2] is reported as 63%. The “%Time > CT of 1 μg/mL for stasis” value [2] was 59%, the “%Time > CT of 1 μg/mL for 1–log10 kill” value [3] was 47% and the “%Time > CT of 1 μg/mL for stasis” value [3] was 43%. For the same compound, the “%Time > CT of 1 μg/mL for 1–log10 kill” value [4] was 49%, the “%Time > CT of 1 μg/mL for stasis” value [4] was 37% and the “%Time > CT of 1 μg/mL for 1–log10 kill” value [5] was 14%. For the same compound, the “%Time > CT of 1 μg/mL for stasis” value [5] was 7%.
